Results from ChEMBL document CHEMBL4004849, “Tetrazolylmethyl quinolines: Design, docking studies, synthesis, anticancer and antifungal analyses” (2017).
≈ marks a conversion by molar mass, not a printed value. Calls of active or inactive are those of the source. The calls are words filed in the database; no cut-off is given here.

Experiments:
Type in all cases: functional
IGROV-1 = experiment: Growth inhibition of human IGROV1 cells at 10^-5 M incubated for 48 hrs by sulforhodamine B assay relative to control
SK-OV-3 = experiment: Growth inhibition of human SKOV3 cells at 10^-5 M incubated for 48 hrs by sulforhodamine B assay relative to control
SN12C = experiment: Growth inhibition of human SN12C cells at 10^-5 M incubated for 48 hrs by sulforhodamine B assay relative to control
A549 = experiment: Growth inhibition of human A549/ATCC cells at 10^-5 M incubated for 48 hrs by sulforhodamine B assay relative to control
NCI-H226 = experiment: Growth inhibition of human NCI-H226 cells at 10^-5 M incubated for 48 hrs by sulforhodamine B assay relative to control
M14 = experiment: Growth inhibition of human M14 cells at 10^-5 M incubated for 48 hrs by sulforhodamine B assay relative to control
NCI-H23 = experiment: Growth inhibition of human NCI-H23 cells at 10^-5 M incubated for 48 hrs by sulforhodamine B assay relative to control
NCI-H460 = experiment: Growth inhibition of human NCI-H460 cells at 10^-5 M incubated for 48 hrs by sulforhodamine B assay relative to control
SF-539 = experiment: Growth inhibition of human SF539 cells at 10^-5 M incubated for 48 hrs by sulforhodamine B assay relative to control
LOX IMVI = experiment: Growth inhibition of human LOXIMVI cells at 10^-5 M incubated for 48 hrs by sulforhodamine B assay relative to control
TK-10 = experiment: Growth inhibition of human TK10 cells at 10^-5 M incubated for 48 hrs by sulforhodamine B assay relative to control
Candida albicans [1] = experiment: Antifungal activity against Candida albicans at 100 ug/ml by disc diffusion method; conditions: read-out: IZ
EKVX = experiment: Growth inhibition of human EKVX cells at 10^-5 M incubated for 48 hrs by sulforhodamine B assay relative to control
RXF 393 = experiment: Growth inhibition of human RXF393 cells at 10^-5 M incubated for 48 hrs by sulforhodamine B assay relative to control
OVCAR-8 = experiment: Growth inhibition of human OVCAR8 cells at 10^-5 M incubated for 48 hrs by sulforhodamine B assay relative to control
SF-268 = experiment: Growth inhibition of human SF268 cells at 10^-5 M incubated for 48 hrs by sulforhodamine B assay relative to control
KM12 = experiment: Growth inhibition of human KM12 cells at 10^-5 M incubated for 48 hrs by sulforhodamine B assay relative to control
MOLT-4 = experiment: Growth inhibition of human MOLT4 cells at 10^-5 M incubated for 48 hrs by sulforhodamine B assay relative to control
HCT-15 = experiment: Growth inhibition of human HCT15 cells at 10^-5 M incubated for 48 hrs by sulforhodamine B assay relative to control
T47D = experiment: Growth inhibition of human T47D cells at 10^-5 M incubated for 48 hrs by sulforhodamine B assay relative to control
COLO 205 = experiment: Growth inhibition of human COLO205 cells at 10^-5 M incubated for 48 hrs by sulforhodamine B assay relative to control
UACC-257 = experiment: Growth inhibition of human UACC257 cells at 10^-5 M incubated for 48 hrs by sulforhodamine B assay relative to control
HL-60(TB) = experiment: Growth inhibition of human HL-60(TB) cells at 10^-5 M incubated for 48 hrs by sulforhodamine B assay relative to control
NCI-H522 = experiment: Growth inhibition of human NCI-H522 cells at 10^-5 M incubated for 48 hrs by sulforhodamine B assay relative to control
SK-MEL-2 = experiment: Growth inhibition of human SK-MEL-2 cells at 10^-5 M incubated for 48 hrs by sulforhodamine B assay relative to control
SNB-19 = experiment: Growth inhibition of human SNB19 cells at 10^-5 M incubated for 48 hrs by sulforhodamine B assay relative to control
Aspergillus fumigatus = experiment: Antifungal activity against Aspergillus fumigatus after 24 hrs by serial dilution method
CAKI-1 = experiment: Growth inhibition of human Caki1 cells at 10^-5 M incubated for 48 hrs by sulforhodamine B assay relative to control
U-251 = experiment: Growth inhibition of human U251 cells at 10^-5 M incubated for 48 hrs by sulforhodamine B assay relative to control
HCT-116 = experiment: Growth inhibition of human HCT116 cells at 10^-5 M incubated for 48 hrs by sulforhodamine B assay relative to control
ACHN = experiment: Growth inhibition of human ACHN cells at 10^-5 M incubated for 48 hrs by sulforhodamine B assay relative to control
HCC 2998 = experiment: Growth inhibition of human HCC2998 cells at 10^-5 M incubated for 48 hrs by sulforhodamine B assay relative to control
SNB-75 = experiment: Growth inhibition of human SNB75 cells at 10^-5 M incubated for 48 hrs by sulforhodamine B assay relative to control
SR = experiment: Growth inhibition of human SR cells at 10^-5 M incubated for 48 hrs by sulforhodamine B assay relative to control
SW-620 = experiment: Growth inhibition of human SW620 cells at 10^-5 M incubated for 48 hrs by sulforhodamine B assay relative to control
Candida albicans [2] = experiment: Antifungal activity against Candida albicans after 24 hrs by serial dilution method
SF-295 = experiment: Growth inhibition of human SF295 cells at 10^-5 M incubated for 48 hrs by sulforhodamine B assay relative to control
UO-31 = experiment: Growth inhibition of human UO31 cells at 10^-5 M incubated for 48 hrs by sulforhodamine B assay relative to control
SK-MEL-5 = experiment: Growth inhibition of human SK-MEL-5 cells at 10^-5 M incubated for 48 hrs by sulforhodamine B assay relative to control
MDA-MB-231 = experiment: Growth inhibition of human MDA-MB-231/ATCC cells at 10^-5 M incubated for 48 hrs by sulforhodamine B assay relative to control
UACC-62 = experiment: Growth inhibition of human UACC62 cells at 10^-5 M incubated for 48 hrs by sulforhodamine B assay relative to control
BT-549 = experiment: Growth inhibition of human BT549 cells at 10^-5 M incubated for 48 hrs by sulforhodamine B assay relative to control
Malme-3M = experiment: Growth inhibition of human MALME-3M cells at 10^-5 M incubated for 48 hrs by sulforhodamine B assay relative to control
MDA-MB-435 = experiment: Growth inhibition of human MDA-MB-435 cells at 10^-5 M incubated for 48 hrs by sulforhodamine B assay relative to control

Compound: Cc1ccc2nc(Cl)c(Cn3nnnc3Cc3ccccc3)cc2c1
- growth inhibition (GI) (IGROV-1): Active
- growth inhibition (GI) (SK-OV-3): Active
- growth inhibition (GI) (SN12C): Active
- growth inhibition (GI) (A549): Active
- growth inhibition (GI) (NCI-H226): Active
- growth inhibition (GI) (M14): Active
- growth inhibition (GI) (NCI-H23): Active
- growth inhibition (GI) (NCI-H460): Active
- growth inhibition (GI) (SF-539): Active
- growth inhibition (GI) (LOX IMVI): Active
- growth inhibition (GI) (TK-10): Active
- zone of inhibition at 100 µg/mL (Candida albicans [1]): 10 mm
- growth inhibition (GI) (EKVX): Active
- growth inhibition (GI) (RXF 393): Active
- growth inhibition (GI) (OVCAR-8): Active
- growth inhibition (GI) (SF-268): Active
- growth inhibition (GI) (KM12): Active
- growth inhibition (GI) (MOLT-4): Active
- growth inhibition (GI) (HCT-15): Active
- growth inhibition (GI) (T47D): Active
- growth inhibition (GI) (COLO 205): Active
- growth inhibition (GI) (UACC-257): Active
- growth inhibition (GI) (HL-60(TB)): Active
- growth inhibition (GI) (NCI-H522): Active
- growth inhibition (GI) (SK-MEL-2): Active
- growth inhibition (GI) (SNB-19): Active
- MIC (Aspergillus fumigatus): 25 µg/mL (≈ 71.5 µM)
- growth inhibition (GI) (CAKI-1): Active
- growth inhibition (GI) (U-251): Active
- growth inhibition (GI) (HCT-116): Active
- growth inhibition (GI) (ACHN): Active
- growth inhibition (GI) (HCC 2998): Active
- growth inhibition (GI) (SNB-75): Active
- growth inhibition (GI) (SR): Active
- growth inhibition (GI) (SW-620): Active
- MIC (Candida albicans [2]): 25 µg/mL (≈ 71.5 µM)
- growth inhibition (GI) (SF-295): Active
- growth inhibition (GI) (UO-31): Active
- growth inhibition (GI) (SK-MEL-5): Active
- growth inhibition (GI) (MDA-MB-231): Active
- growth inhibition (GI) (UACC-62): Active
- growth inhibition (GI) (BT-549): Active
- growth inhibition (GI) (Malme-3M): Active
- growth inhibition (GI) (MDA-MB-435): Active
